Data reported in the supplement of paper PMC4977894.
Structures can show the parent of a compound that is named as a salt. ± gives the standard deviation of the averaged measurements.

Legend:
[1] = test system: Homo sapiens (human subject panel, olfactory perception); experiment: perceived odor intensity rating (rating 0-100); higher = stronger perceived smell
In short: (§1)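 For each molecule, 1 mL diluted in paraffin oil was sniffed at high and low concentrations by 55 healthy human subjects aged 18–50, with the six lowest performers excluded. Presentation order was randomized over ten visits of 100 stimuli. Subjects who reported smelling a stimulus moved a computerized slider from its starting position of 50, and positions were converted to a 0–100 scale. The familiarity, intensity and pleasantness ratings are averaged across subjects.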

[2] = test system: Homo sapiens (human subject panel, olfactory perception); experiment: perceived odor familiarity rating (rating 0-100); higher = more familiar
In short: as §1

[3] = test system: Homo sapiens (human subject panel, olfactory perception); experiment: perceived odor pleasantness rating (rating 0-100); higher = more pleasant
In short: as §1

[4] = odor dilution in paraffin oil: 1/10
[5] = odor dilution in paraffin oil: 1/1,000
[6] = odor dilution in paraffin oil: 1/100,000
[7] = odor dilution in paraffin oil: 1/10,000,000

SMILES | perceived odor intensity rating [1, 4] | perceived odor intensity rating [1, 5] | perceived odor familiarity rating [2, 4] | perceived odor familiarity rating [2, 5] | perceived odor pleasantness rating [3, 4] | perceived odor pleasantness rating [3, 5] | perceived odor intensity rating [1, 6] | perceived odor familiarity rating [2, 6] | perceived odor pleasantness rating [3, 6] | perceived odor intensity rating [1, 7] | perceived odor familiarity rating [2, 7] | perceived odor pleasantness rating [3, 7]
c1ccc(CSSCc2ccccc2)cc1 [Benzyl disulfide] | 81.2 ± 20 | 63.6 ± 27 | 48.2 ± 34 | 49.1 ± 32 | 24.2 ± 25 | 26.8 ± 22 | – | – | – | – | – | –
c1ccc(COCc2ccccc2)cc1 [Benzyl ether] | 75.7 ± 24 | 25.2 ± 26 | 63.8 ± 32 | 31 ± 26 | 67.8 ± 27 | 49.2 ± 23 | – | – | – | – | – | –
S=C=NCc1ccccc1 [Benzyl isothiocyanate] | – | 80.9 ± 20 | – | 40.9 ± 32 | – | 15.1 ± 19 | 55 ± 30 | 43.4 ± 26 | 29 ± 23 | – | – | –
O=C(Cc1ccccc1)OCc1ccccc1 [Benzyl phenylacetate] | – | 54.4 ± 30 | – | 49.8 ± 32 | – | 31 ± 26 | 37.4 ± 35 | 37.3 ± 31 | 47 ± 20 | – | – | –
CCC(=O)OCc1ccccc1 [Benzyl propionate] | – | 53 ± 30 | – | 50.7 ± 32 | – | 67.2 ± 23 | 30 ± 32 | 34.5 ± 24 | 44 ± 28 | – | – | –
O=C(OCc1ccccc1)c1ccccc1O [Benzyl salicylate] | 48.6 ± 30 | 28.4 ± 28 | 40.7 ± 29 | 38 ± 28 | 57.6 ± 23 | 53.6 ± 24 | – | – | – | – | – | –
c1ccc(-c2ccccc2)cc1 [Biphenyl] | 77.6 ± 20 | 31.7 ± 26 | 42.5 ± 33 | 36.2 ± 28 | 31.3 ± 24 | 51.4 ± 21 | – | – | – | – | – | –
CSCSC [Bis(methylthio)methane] | – | – | – | – | – | – | 78.7 ± 22 | 50.3 ± 34 | 25.1 ± 25 | 33.8 ± 26 | 38.9 ± 31 | 45.4 ± 25
CC(=O)OC1CC2CCC1(C)C2(C)C (stereo not drawn) [Bornyl acetate] | – | 36.1 ± 30 | – | 44.2 ± 29 | – | 45.2 ± 22 | 29.9 ± 28 | 28.9 ± 26 | 45.7 ± 24 | – | – | –
C=CCCCCCCCCC(=O)OCCCC [Butyl 10-undecenoate] | 58.1 ± 30 | 31.9 ± 33 | 50 ± 30 | 44.4 ± 32 | 35.1 ± 27 | 42.2 ± 19 | – | – | – | – | – | –
CCCCOC(=O)[C@H](C)O [Butyl (S)-(-)-lactate] | – | 55.5 ± 29 | – | 50.4 ± 32 | – | 50.2 ± 28 | 33.6 ± 34 | 39.5 ± 25 | 48.8 ± 23 | – | – | –
CCCCOC(=O)CC [Butyl Propionate] | – | 62 ± 25 | – | 50.6 ± 30 | – | 54.6 ± 26 | 18 ± 25 | 31.9 ± 33 | 46.5 ± 25 | – | – | –
CCCCOC=O [Butyl formate] | – | 51.8 ± 32 | – | 49.7 ± 29 | – | 45.4 ± 28 | 8.38 ± 15 | 29.1 ± 29 | 44.1 ± 28 | – | – | –
CCCCOC(=O)Cc1ccccc1 [Butyl phenylacetate] | – | 53.1 ± 31 | – | 51.6 ± 30 | – | 47.2 ± 28 | 24.8 ± 25 | 41.3 ± 32 | 45.9 ± 22 | – | – | –
CCCCN [Butylamine] | – | – | – | – | – | – | 16.3 ± 22 | 36 ± 29 | 50.8 ± 27 | 21.8 ± 24 | 32.7 ± 27 | 44.4 ± 25
Cc1cc(C(C)(C)C)c(O)c(C(C)(C)C)c1 [Butylated hydroxytoluene] | 40.3 ± 31 | 16.9 ± 24 | 43.4 ± 29 | 27.7 ± 29 | 51.9 ± 24 | 51.4 ± 22 | – | – | – | – | – | –
CC12CCC(CC1=O)C2(C)C (stereo not drawn) [Camphor] | – | 57.4 ± 30 | – | 54.4 ± 30 | – | 49.5 ± 25 | 17.3 ± 20 | 31.3 ± 29 | 53.1 ± 22 | – | – | –
Cc1ccc(C(C)C)cc1O [Carvacrol] | – | 74.1 ± 20 | – | 62.7 ± 31 | – | 48 ± 28 | 50.4 ± 26 | 58.8 ± 32 | 53.2 ± 24 | – | – | –

SMILES | perceived odor intensity rating [1, 4] | perceived odor intensity rating [1, 5] | perceived odor familiarity rating [2, 4] | perceived odor familiarity rating [2, 5] | perceived odor pleasantness rating [3, 4] | perceived odor pleasantness rating [3, 5] | perceived odor intensity rating [1, 6] | perceived odor familiarity rating [2, 6] | perceived odor pleasantness rating [3, 6] | perceived odor intensity rating [1, 7] | perceived odor familiarity rating [2, 7] | perceived odor pleasantness rating [3, 7]
OC/C=C/c1ccccc1 [Cinnamyl alcohol] | – | – | – | – | – | – | 6 | 52 | 32 | – | – | –
O=C(O)CC(O)(CC(=O)O)C(=O)O [Citric acid] | 27.4 ± 28 | 14.7 ± 22 | 33.9 ± 30 | 28.5 ± 31 | 51.7 ± 26 | 46.7 ± 28 | – | – | – | – | – | –
O=C1CCCCCC1 [Cycloheptanone] | – | 69 ± 28 | – | 52.7 ± 30 | – | 40.8 ± 28 | 26.4 ± 28 | 35.8 ± 30 | 55 ± 19 | – | – | –
C1CCCCC1 [Cyclohexane] | 57.4 ± 34 | 49 ± 34 | 55.1 ± 29 | 51.6 ± 32 | 48.2 ± 27 | 40.5 ± 24 | – | – | – | – | – | –
O=C(O)CC1CCCCC1 [Cyclohexaneacetic acid] | – | 69.9 ± 22 | – | 46.9 ± 28 | – | 28.8 ± 22 | 29.4 ± 30 | 32.8 ± 25 | 37.6 ± 23 | – | – | –
O=C1CCCCC1 [Cyclohexanone (replicate)] | – | 66.5 ± 26 | – | 51.6 ± 30 | – | 46 ± 27 | 20.8 ± 29 | 28.4 ± 28 | 55.4 ± 24 | – | – | –
O=C1CCCCC1 [Cyclohexanone] | – | 69.9 ± 22 | – | 52.5 ± 28 | – | 38 ± 27 | 19.6 ± 27 | 26.7 ± 25 | 47.9 ± 23 | – | – | –
SC1CCCC1 [Cyclopentanethiol] | – | – | – | – | – | – | 92.4 ± 10 | 55.4 ± 34 | 16.5 ± 22 | 78.1 ± 21 | 57.8 ± 33 | 24 ± 23
O=C1CCCC1 [Cyclopentanone] | 81.4 ± 23 | 52.3 ± 33 | 48.9 ± 34 | 33.1 ± 30 | 29.6 ± 25 | 36 ± 25 | – | – | – | – | – | –
CC12CCC(CC1=O)C2(C)C [D-Camphor] | 89.8 ± 17 | 63.8 ± 31 | 81 ± 26 | 68.5 ± 25 | 52.1 ± 30 | 52.3 ± 28 | – | – | – | – | – | –
C=C(C)[C@@H]1CC[C@@H](C)C(=O)C1 [D-Dihydrocarvone] | 81.9 ± 16 | 45.9 ± 29 | 52.5 ± 34 | 47.2 ± 28 | 39.5 ± 26 | 50.2 ± 23 | – | – | – | – | – | –
OC[C@@H](O)[C@@H](O)[C@H](O)[C@@H](O)CO [D-Sorbitol] | 73.4 ± 22 | 39 ± 33 | 55.1 ± 31 | 44.6 ± 31 | 29.8 ± 27 | 45 ± 28 | – | – | – | – | – | –
OC1CCC2CCCCC2C1 (stereo not drawn) [Decahydro-2-naphthol] | – | 54.8 ± 29 | – | 48.7 ± 29 | – | 49.9 ± 26 | 23.1 ± 27 | 36.3 ± 32 | 50.6 ± 24 | – | – | –
CCCCCCCCCC(OC)OC [Decanal dimethyl acetal] | 70.7 ± 25 | 29.7 ± 30 | 47.6 ± 34 | 41.2 ± 34 | 50.2 ± 29 | 53.6 ± 22 | – | – | – | – | – | –
CCSSCC [Diethyl disulfide] | – | 85.9 ± 16 | – | 52.5 ± 35 | – | 21.3 ± 27 | 60.6 ± 34 | 51.2 ± 32 | 28.4 ± 24 | – | – | –
CCOC(=O)CC(O)C(=O)OCC (stereo not drawn) [Diethyl malate] | – | 24.6 ± 25 | – | 35.8 ± 28 | – | 41.4 ± 24 | 12.6 ± 17 | 22.1 ± 26 | 55.2 ± 19 | – | – | –
CCOC(=O)CC(=O)OCC [Diethyl malonate] | – | 57.1 ± 27 | – | 64.3 ± 24 | – | 71.7 ± 17 | 27.4 ± 26 | 42.8 ± 28 | 61 ± 23 | – | – | –
CCOC(=O)CCCCCCCCC(=O)OCC [Diethyl sebacate] | 54.7 ± 27 | 21.4 ± 25 | 64.7 ± 28 | 31.3 ± 31 | 71.3 ± 21 | 55.5 ± 26 | – | – | – | – | – | –
